PubChem BioAssay (NCI)
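Each compound was tested at five concentrations against cells in 96-well plates for 48 hours. TGI marks complete inhibition of growth.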

What was measured:
Assay in all cases: NCI tumour cell line growth inhibition, 48 h
OVCAR-4 ovarian = system: OVCAR-4 ovarian
MCF7 breast = system: MCF7 breast
SK-OV-3 ovarian = system: SK-OV-3 ovarian
HT29 colon = system: HT29 colon
OVCAR-5 ovarian = system: OVCAR-5 ovarian
UACC-62 melanoma = system: UACC-62 melanoma
UO-31 renal = system: UO-31 renal
HS 578T breast = system: HS 578T breast
COLO 205 colon = system: COLO 205 colon
MDA-MB-231 breast = system: MDA-MB-231 breast
TK-10 renal = system: TK-10 renal
A498 renal = system: A498 renal
A549 NSCLC = system: A549 NSCLC
ACHN renal = system: ACHN renal
SF-539 CNS = system: SF-539 CNS
SNB-75 CNS = system: SNB-75 CNS
EKVX NSCLC = system: EKVX NSCLC
SNB-19 CNS = system: SNB-19 CNS
IGROV1 ovarian = system: IGROV1 ovarian
HCT-116 colon = system: HCT-116 colon
M14 melanoma = system: M14 melanoma
T-47D breast = system: T-47D breast
U251 CNS = system: U251 CNS
SK-MEL-28 melanoma = system: SK-MEL-28 melanoma
HCC-2998 colon = system: HCC-2998 colon
NCI-H460 lung = system: NCI-H460 lung
KM12 colon = system: KM12 colon
CAKI-1 renal = system: CAKI-1 renal
SF-268 CNS = system: SF-268 CNS
MDA-MB-435 = system: MDA-MB-435
786-0 renal = system: 786-0 renal
NCI-H23 lung = system: NCI-H23 lung
LOX IMVI melanoma = system: LOX IMVI melanoma
DU-145 prostate = system: DU-145 prostate
SF-295 CNS = system: SF-295 CNS
HL-60(TB) leukemia = system: HL-60(TB) leukemia
UACC-257 melanoma = system: UACC-257 melanoma
OVCAR-8 ovarian = system: OVCAR-8 ovarian
SR leukemia = system: SR leukemia
SK-MEL-5 melanoma = system: SK-MEL-5 melanoma
MALME-3M melanoma = system: MALME-3M melanoma
HOP-92 NSCLC = system: HOP-92 NSCLC
SN12C renal = system: SN12C renal
NCI/ADR-RES ovarian = system: NCI/ADR-RES ovarian
NCI-H226 lung = system: NCI-H226 lung
HCT-15 colon = system: HCT-15 colon
NCI-H522 lung = system: NCI-H522 lung
BT-549 breast = system: BT-549 breast
PC-3 prostate = system: PC-3 prostate
MDA-N = system: MDA-N
MOLT-4 leukemia = system: MOLT-4 leukemia
K-562 leukemia = system: K-562 leukemia
SK-MEL-2 melanoma = system: SK-MEL-2 melanoma
SW-620 colon = system: SW-620 colon
HOP-62 NSCLC = system: HOP-62 NSCLC
RXF 393 renal = system: RXF 393 renal
OVCAR-3 ovarian = system: OVCAR-3 ovarian
CCRF-CEM leukemia = system: CCRF-CEM leukemia

CC(C)=CCc1c(OC(=O)c2c(C)cc(O)cc2O)cc(CO)c(CO)c1O
TGI (OVCAR-4 ovarian): 38.2 µM
TGI (MCF7 breast): 46.5 µM
TGI (SK-OV-3 ovarian): 30.9 µM
TGI (HT29 colon): 42.6 µM
TGI (OVCAR-5 ovarian): 43.1 µM
TGI (UACC-62 melanoma): 29.6 µM
TGI (UO-31 renal): 34.4 µM
TGI (HS 578T breast): 54.8 µM
TGI (COLO 205 colon): 33.8 µM
TGI (MDA-MB-231 breast): 48.3 µM
TGI (TK-10 renal): 77.9 µM
TGI (A498 renal): 35.1 µM
TGI (A549 NSCLC): 62.2 µM
TGI (ACHN renal): 37.2 µM
TGI (SF-539 CNS): 38 µM
TGI (SNB-75 CNS): 40.7 µM
TGI (EKVX NSCLC): > 100 µM
TGI (SNB-19 CNS): 21.2 µM
TGI (IGROV1 ovarian): 62.2 µM
TGI (HCT-116 colon): 43.9 µM
TGI (M14 melanoma): 44.7 µM
TGI (T-47D breast): 23.8 µM
TGI (U251 CNS): 40 µM
TGI (SK-MEL-28 melanoma): 46.7 µM
TGI (HCC-2998 colon): 31.7 µM
TGI (NCI-H460 lung): 39.2 µM
TGI (KM12 colon): 30.6 µM
TGI (CAKI-1 renal): 20.5 µM
TGI (SF-268 CNS): 85 µM
TGI (MDA-MB-435): 45.9 µM
TGI (786-0 renal): > 100 µM
TGI (NCI-H23 lung): 33 µM
TGI (LOX IMVI melanoma): 40.9 µM
TGI (DU-145 prostate): 70.4 µM
TGI (SF-295 CNS): 37.5 µM
TGI (HL-60(TB) leukemia): 19.1 µM
TGI (UACC-257 melanoma): > 100 µM
TGI (OVCAR-8 ovarian): 63.9 µM
TGI (SR leukemia): 94.5 µM
TGI (SK-MEL-5 melanoma): 29.1 µM
TGI (MALME-3M melanoma): 45.4 µM
TGI (HOP-92 NSCLC): 52.3 µM
TGI (SN12C renal): 34.9 µM
TGI (NCI/ADR-RES ovarian): 85.6 µM
TGI (NCI-H226 lung): > 100 µM
TGI (HCT-15 colon): 34.6 µM
TGI (NCI-H522 lung): 39.2 µM
TGI (BT-549 breast): 41 µM
TGI (PC-3 prostate): 36.8 µM
TGI (MDA-N): 34.8 µM
TGI (MOLT-4 leukemia): 63 µM
TGI (K-562 leukemia): 32.9 µM
TGI (SK-MEL-2 melanoma): 59.5 µM

COC(=O)[C@@H]1[C@@H](c2cccc(Cl)c2)[C@H](C(=O)OC)C2(C[C@@]1(C)O)NCCS2 (stereo partly drawn)
TGI (OVCAR-4 ovarian): > 100 µM
TGI (MCF7 breast): > 100 µM
TGI (SK-OV-3 ovarian): > 100 µM
TGI (HT29 colon): > 100 µM
TGI (SW-620 colon): > 100 µM
TGI (OVCAR-5 ovarian): > 100 µM
TGI (UACC-62 melanoma): > 100 µM
TGI (UO-31 renal): > 100 µM
TGI (HS 578T breast): > 100 µM
TGI (COLO 205 colon): > 100 µM
TGI (MDA-MB-231 breast): > 100 µM
TGI (TK-10 renal): > 100 µM
TGI (A498 renal): > 100 µM
TGI (A549 NSCLC): > 100 µM
TGI (ACHN renal): > 100 µM
TGI (SF-539 CNS): > 100 µM
TGI (HOP-62 NSCLC): > 100 µM
TGI (SNB-75 CNS): > 100 µM
TGI (EKVX NSCLC): > 100 µM
TGI (SNB-19 CNS): > 100 µM
TGI (IGROV1 ovarian): > 100 µM
TGI (HCT-116 colon): > 100 µM
TGI (M14 melanoma): > 100 µM
TGI (T-47D breast): > 100 µM
TGI (U251 CNS): > 100 µM
TGI (SK-MEL-28 melanoma): > 100 µM
TGI (NCI-H460 lung): > 100 µM
TGI (KM12 colon): > 100 µM
TGI (CAKI-1 renal): > 100 µM
TGI (SF-268 CNS): > 100 µM
TGI (MDA-MB-435): > 100 µM
TGI (786-0 renal): > 100 µM
TGI (NCI-H23 lung): > 100 µM
TGI (LOX IMVI melanoma): > 100 µM
TGI (DU-145 prostate): > 100 µM
TGI (SF-295 CNS): > 100 µM
TGI (RXF 393 renal): > 100 µM
TGI (UACC-257 melanoma): > 100 µM
TGI (OVCAR-8 ovarian): > 100 µM
TGI (SK-MEL-5 melanoma): > 100 µM
TGI (MALME-3M melanoma): > 100 µM
TGI (OVCAR-3 ovarian): > 100 µM
TGI (HOP-92 NSCLC): > 100 µM
TGI (SN12C renal): > 100 µM
TGI (NCI/ADR-RES ovarian): > 100 µM
TGI (NCI-H226 lung): > 100 µM
TGI (HCT-15 colon): > 100 µM
TGI (NCI-H522 lung): > 100 µM
TGI (BT-549 breast): > 100 µM
TGI (PC-3 prostate): > 100 µM
TGI (MDA-N): > 100 µM
TGI (MOLT-4 leukemia): 42.1 µM
TGI (K-562 leukemia): > 100 µM
TGI (CCRF-CEM leukemia): 14.6 µM
TGI (SK-MEL-2 melanoma): 94 µM
